Source: ChEMBL document CHEMBL5537120 (Eur J Med Chem, 2024)
Active and inactive are the calls of the source. No cut-off for these calls is given here. Where a SMILES comes first, the peptide text is derived from it. Bridges are numbered along the chain shown (N, C = ends).

Test system: SARS-CoV-2
Assay: Antiviral activity against HIV-1 pseudotyped SARS-CoV-2 Omicron BA.2.75 infected in HEK293T cells harboring ACE2+/NRP1- assessed as reduction in infection rate pretreated with cells for 1 hr followed by viral infection and measured after 2 days by firefly luciferase reporter gene assay
Type: functional, organism-based
Conditions: Severe acute respiratory syndrome coronavirus 2, time 49.0 hrs

Row | SMILES | Activity
1 | CC(C)C[C@@H]1NC(=O)[C@@H]2CCCN2C(=O)[C@H](CO)NC(=O)[C@@H](NC(=O)[C@H](Cc2cnc[nH]2)NC(=O)[C@H](CO)NC(=O)[C@H](Cc2ccccc2)NC(=O)[C@H](CC(=O)O)NC(=O)CN)CSSC[C@@H](C(=O)N[C@H](C(=O)N[C@@H](Cc2ccc(O)cc2)C(=O)N2CCC[C@H]2C(=O)N[C@@H](CC(=O)O)C(=O)N2CCC[C@H]2C(=O)N[C@@H](CCC(=O)O)C(=O)NCC(=O)NCC(=O)NCC(=O)N[C@@H](CCCCN)C(=O)N2CCC[C@H]2C(=O)N[C@@H](C)C(=O)N[C@@H](CCCNC(=N)N)C(=O)N2CCC[C@H]2C(=O)N[C@@H](C)C(=O)N[C@@H](CCCNC(=N)N)C(=O)O)[C@@H](C)O)NC(=O)[C@H](CCCCN)NC(=O)[C@H](Cc2ccccc2)NC(=O)[C@H](Cc2c[nH]c3ccccc23)NC(=O)[C@@H]2CCCN2C(=O)[C@H](Cc2ccccc2)NC(=O)[C@H](Cc2ccc(O)cc2)NC(=O)[C@H](CCCNC(=N)N)NC1=O (H-GDFSHCSPLRYFPWFKCTYPDPEGGGKPARPAR-OH; disulfide 6-17) | Active
2 | CC(C)C[C@@H]1NC(=O)[C@H](C)NC(=O)[C@H](CCCNC(=N)N)NC(=O)[C@@H](NC(=O)[C@@H]2CCCN2C(=O)[C@H](CO)NC(=O)[C@H](Cc2ccc(O)cc2)NC(=O)[C@H](CC(=O)O)NC(=O)CN)CSSC[C@@H](C(=O)N2CCC[C@H]2C(=O)N[C@@H](CO)C(=O)NCC(=O)N[C@@H](CC(=O)O)C(=O)N2CCC[C@H]2C(=O)N[C@@H](CCC(=O)O)C(=O)NCC(=O)NCC(=O)NCC(=O)N[C@@H](CCCNC(=N)N)C(=O)NCC(=O)N[C@@H](CCCNC(=N)N)C(=O)N[C@@H](CCCNC(=N)N)C(=O)N2CCC[C@H]2C(=O)N2CCC[C@H]2C(=O)N[C@@H](CCCNC(=N)N)C(=O)O)NC(=O)[C@H](CCCNC(=N)N)NC(=O)[C@H](Cc2c[nH]c3ccccc23)NC(=O)[C@H](Cc2c[nH]c3ccccc23)NC(=O)[C@@H]2CCCN2C(=O)[C@H](CO)NC(=O)[C@H](Cc2cnc[nH]2)NC(=O)[C@H](CCCNC(=N)N)NC1=O (H-GDYSPCRALRHSPWWRCPSGDPEGGGRGRRPPR-OH; disulfide 6-17) | Active
3 | CC(C)C[C@H](NC(=O)[C@H](CC(=O)O)NC(=O)CN)C(=O)N[C@@H](Cc1cnc[nH]1)C(=O)N[C@@H](C)C(=O)N[C@H]1CSSC[C@@H](C(=O)N[C@H](C(=O)N[C@@H](CC(C)C)C(=O)NCC(=O)N[C@@H](CC(=O)O)C(=O)N2CCC[C@H]2C(=O)N[C@@H](CCC(=O)O)C(=O)NCC(=O)NCC(=O)NCC(=O)N[C@@H](CCCNC(=N)N)C(=O)N[C@@H](CO)C(=O)N2CCC[C@H]2C(=O)N[C@@H](CCCNC(=N)N)C(=O)N[C@@H](CCCNC(=N)N)C(=O)N[C@@H](C)C(=O)N[C@@H](CCCNC(=N)N)C(=O)O)[C@@H](C)O)NC(=O)[C@H](C)NC(=O)[C@H](Cc2c[nH]c3ccccc23)NC(=O)[C@H](Cc2c[nH]c3ccccc23)NC(=O)[C@@H]2CCCN2C(=O)[C@H](CC(=O)O)NC(=O)CNC(=O)[C@H](CCCNC(=N)N)NC(=O)[C@H](C(C)C)NC(=O)[C@@H]2CCCN2C(=O)[C@H](CCCNC(=N)N)NC1=O (H-GDLHACRPVRGDPWWACTLGDPEGGGRSPRRAR-OH; disulfide 6-17) | Active
4 | CC[C@H](C)[C@H](NC(=O)[C@H](Cc1ccccc1)NC(=O)[C@H](CCCCN)NC(=O)[C@H](CC(=O)O)NC(=O)CN)C(=O)N[C@H]1CSSC[C@@H](C(=O)N[C@@H](CC(N)=O)C(=O)N[C@@H](Cc2c[nH]c3ccccc23)C(=O)N[C@@H](Cc2ccc(O)cc2)C(=O)N[C@@H](CC(=O)O)C(=O)N2CCC[C@H]2C(=O)N[C@@H](CCC(=O)O)C(=O)NCC(=O)NCC(=O)NCC(=O)N[C@@H](CCCCN)C(=O)NCC(=O)N[C@@H](CC(N)=O)C(=O)N[C@@H](CCCNC(=N)N)C(=O)N2CCC[C@H]2C(=O)N2CCC[C@H]2C(=O)N[C@@H](CCCNC(=N)N)C(=O)O)NC(=O)[C@H](Cc2ccccc2)NC(=O)[C@H](CCCCN)NC(=O)[C@H](Cc2c[nH]c3ccccc23)NC(=O)[C@@H]2CCCN2C(=O)[C@H](CCCCN)NC(=O)[C@H](CC(=O)O)NC(=O)[C@H](CCCNC(=N)N)NC(=O)[C@H]([C@@H](C)CC)NC(=O)[C@@H]2CCCN2C(=O)[C@H](CC(C)C)NC1=O (H-GDKFICLPIRDKPWKFCNWYDPEGGGKGNRPPR-OH; disulfide 6-17) | Active
5 | CC[C@H](C)[C@@H]1NC(=O)[C@@H]2CCCN2C(=O)[C@H](CO)NC(=O)[C@@H](NC(=O)[C@@H](NC(=O)[C@H](Cc2ccc(O)cc2)NC(=O)[C@H](CCCNC(=N)N)NC(=O)[C@H](CC(=O)O)NC(=O)CN)[C@@H](C)O)CSSC[C@@H](C(=O)N[C@@H](CC(=O)O)C(=O)N[C@@H](CC(C)C)C(=O)NCC(=O)N[C@@H](CC(=O)O)C(=O)N2CCC[C@H]2C(=O)N[C@@H](CCC(=O)O)C(=O)NCC(=O)NCC(=O)NCC(=O)N[C@@H](CCCCN)C(=O)N[C@@H](C)C(=O)N2CCC[C@H]2C(=O)N[C@@H](CCCNC(=N)N)C(=O)N[C@@H](CCCNC(=N)N)C(=O)N[C@@H](C)C(=O)N[C@@H](CCCNC(=N)N)C(=O)O)NC(=O)[C@H](CCCNC(=N)N)NC(=O)[C@H](Cc2c[nH]c3ccccc23)NC(=O)[C@H](Cc2c[nH]c3ccccc23)NC(=O)[C@@H]2CCCN2C(=O)[C@H](Cc2ccccc2)NC(=O)[C@H](CCSC)NC(=O)[C@H](CCCNC(=N)N)NC1=O (H-GDRYTCSPIRMFPWWRCDLGDPEGGGKAPRRAR-OH; disulfide 6-17) | Active
